{"source": "patent US20250154607A1", "about": "“ISOTHERMAL AMPLIFICATION OF PATHOGENS” (priority 2021, published 2025)", "key": {"9° Nm™ DNA polymerase": {"molecular_target": "9° Nm™ DNA polymerase (Thermococcus sp., UniProt Q56366, E143D)", "sequence (Q56366 whole entry E143D)": "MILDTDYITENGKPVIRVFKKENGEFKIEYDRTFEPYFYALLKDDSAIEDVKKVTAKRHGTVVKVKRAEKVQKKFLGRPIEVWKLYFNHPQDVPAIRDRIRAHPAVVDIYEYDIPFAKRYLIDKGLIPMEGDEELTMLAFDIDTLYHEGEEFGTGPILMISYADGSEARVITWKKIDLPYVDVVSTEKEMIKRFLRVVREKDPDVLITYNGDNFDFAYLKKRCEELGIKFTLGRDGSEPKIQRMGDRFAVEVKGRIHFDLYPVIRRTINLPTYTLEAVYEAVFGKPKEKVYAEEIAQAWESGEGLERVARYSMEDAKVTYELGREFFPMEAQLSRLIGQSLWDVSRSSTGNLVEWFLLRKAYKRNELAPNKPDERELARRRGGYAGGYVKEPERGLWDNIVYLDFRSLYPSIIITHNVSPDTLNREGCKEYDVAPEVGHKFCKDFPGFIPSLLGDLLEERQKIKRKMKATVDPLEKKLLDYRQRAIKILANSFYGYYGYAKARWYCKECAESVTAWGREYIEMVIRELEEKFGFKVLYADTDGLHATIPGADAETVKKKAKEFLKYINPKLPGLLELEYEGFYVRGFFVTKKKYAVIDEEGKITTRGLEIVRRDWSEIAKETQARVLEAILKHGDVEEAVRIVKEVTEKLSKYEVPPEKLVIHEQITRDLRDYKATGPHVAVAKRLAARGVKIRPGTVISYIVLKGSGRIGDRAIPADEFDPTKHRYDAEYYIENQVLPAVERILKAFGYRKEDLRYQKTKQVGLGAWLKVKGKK", "assay": "APA amplification of Neisseria gonorrhea DNA with SDS, with or without HPβCD", "assay_type": "biochemical", "details": "no protective agent (absence of βCD); 500 copies N. gonorrhea genomic DNA; APA at 68° C.", "experimental": "This example provides SDS complexation analyses of the methods and compositions provided herein. […] Anionic detergent SDS at >0.01% is inhibitory to APA amplification of DNA, but the presence of the protective agent hydroxypropyl β-CD (βCD) allowed amplification to proceed despite≤0.2% SDS. The kinetics of hydroxypropyl β-CD sequestration of SDS were thus sufficiently rapid at a molar ratio of 2:1 (˜14 mM: −7 mM) to prevent 9° Nm™ DNA polymerase inactivation by SDS.\nStandard APA reactions with or without 4% Sigma 389145 HPβCD containing “hot-start” CleanAmp™ deoxynucleotides (CAdNTP) and a sequence-specific molecular beacon detection probe were performed with lyophilized ((supplemented with dextran 40, Trehalose), FIG. 2B) or “wet” (no HPβCD, FIG. 2A) reagents including Tris pH 8.4, KCl, MgSO4, and (NH4)2SO4 Triton X-100, 9° Nm™ DNA polymerase, CAdNTP, primers and probe. For the lyophilized reactions, samples were prepared in 50 μl solution containing MgSO4, and (NH4)2SO4 with (shapes) or without (dashed) 500 copies of N. gonorrhea genomic DNA. After dried reagents were dissolved with the samples, various amounts of SDS were added, as indicated, and solutions were vortexed. For the wet reactions, 45 μl master mix containing all reaction components was added to 5 μl sample containing 1OX SDS (final concentration as indicated), with and without 500 copies of N. gonorrhea genomic DNA. Activation of CAdNTP by 2 minutes 90° C. was followed by APA at 68° C. for 10 minutes with detection of the NG amplification product by fluorescence collected every 15 seconds."}, "nasal ribonuclease": {"test_system": "nasal ribonuclease", "assay": "Rapid irreversibility of nasal ribonuclease inactivation (RNase alert assay)", "assay_type": "biochemical", "details": "0.2% SDS with or without 40 mM cysteine, 60° C.; immediately diluted into 4% β-cyclodextrin", "experimental": "FIG. 13 depicts data related to the rapid irreversibility of nasal ribonuclease inactivation. 5 μl concentrated nasal swab eluate in TE, an amount equivalent to 2% on a typical nasal swab, was mixed with 45 μl of either lysis buffer containing 0.2% SDS (RBS, solid line), RBS containing 40 mM cysteine (squares), or water (dotted line) all preheated to 60° C. 5 μl was immediately diluted into 45 μl 4% β-cyclodextrin to sequester detergent. The recovered RNase activity was determined with an RNase alert assay; as control for the assay, an equivalent amount of nasal swab eluate was directly added without prior treatment (X). […] Unexpectedly, the effectively irreversible inactivation of ribonucleases thus observed during the practice of this invention was virtually instantaneous (monitored by directly testing ribonuclease activity), unlike prior art methods based upon heat. Also shown in this example is that the inactivation properties described for RNase A are also attributable to ribonucleases naturally occurring in nasal exudates."}, "RNase A [1]": {"molecular_target": "T1, RNase A (Bos taurus, UniProt P61823)", "T1 sequence (P61823 27-150)": "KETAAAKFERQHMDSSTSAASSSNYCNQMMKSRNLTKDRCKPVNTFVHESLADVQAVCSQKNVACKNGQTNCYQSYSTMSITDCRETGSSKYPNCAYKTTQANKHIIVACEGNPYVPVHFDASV", "assay": "Requirements for irreversible RNase inactivation (influenza B RNA APA in presence of RNase A)", "assay_type": "biochemical", "details": "500 ng RNase A (10 μg/ml); additions 0.2% SDS, 10 mM DTT, 0.1% Triton X-100 as labelled; 2 minutes at 58° C.; then 4% βCD"}, "nasal swab ribonucleases": {"test_system": "nasal swab ribonucleases", "assay": "Protection of RNA from nasal swab ribonucleases (influenza B RNA APA)", "assay_type": "biochemical, human"}, "[2]": {"test_system": "Chlamydia trachomatis elementary bodies", "assay": "Lysis of Chlamydia trachomatis elementary bodies, read out by APA", "details": "lysis buffer 0.4% SDS, pH 2.2, 2 minutes at 78° C.; compared with heat lysis 5 minutes at 95° C.", "experimental": "Elementary body lysis (˜40/reaction) was probed in this example using an APA-based assay. Elementary bodies (Acrometrix) were added to either cold chlamydia transport media (SPD containing sucrose, phosphate buffer, and glutamic acid), TE (Tris-EDTA 10-1), or lysis buffer containing 0.4% SDS, pH 2.2. The samples in TE or SDS were heated 5 minutes at 95° C. (heat lysis) or 2 minutes at 78° C. (SDS lysis), respectively. Then 5 μl (containing 40 elementary bodies) was added to “wet” APA reaction mix as above (pH 7.6 to facilitate isothermal CAdNTP activation) containing 4% cyclodextrin HP-βCD for isothermal APA (68° C.) with fluorescence from a chlamydia-specific molecular beacon collected every 15 seconds."}, "RNase A [3]": {"molecular_target": "T1, RNase A", "assay": "Influenza B virus APA assay with RNase A in ELB (Elution/Lysis Buffer)", "assay_type": "biochemical", "details": "RNAse A 10 μg/ml; 2 minutes 58° C. in ELB with 0.2% SDS, without or with 10 mM DTT; β-CD 4% final", "experimental": "FIGS. 12A-12B depict data related to RNase A inactivation in an influenza B assay like the one in Example 4, with DTT in ELB (Elution/Lysis Buffer). […] After incubation, lyophilized APA reagents co-incubated 2 minutes 58° C., containing β-CD (4% final) were dissolved with the heated solutions, and FAM fluorescence collected every 15 seconds to monitor APA. […] The inclusion of DTT enables unimpeded operation of this POC influenza detection system in a mock sample containing very high level of purified RNase A ([…]). Moreover, while currently available methods can only achieve irreversible ribonuclease inactivation at a maximum 200 ng/ml, the compositions and methods provided herein show utility with 10 μg/ml to accommodate potentially larger amounts in patient samples."}}, "data": [{"smiles": "CCCCCCCCCCCCOS(=O)(=O)[O-].[Na+]", "note": "[SDS, sodium dodecyl sulfate]", "values": [{"measurement": "SDS concentration inhibitory to APA amplification of DNA", "setting": "9° Nm™ DNA polymerase", "result": "> 0.01", "unit": "%"}, {"measurement": "Reversibility of nasal RNase inactivation after SDS sequestration", "setting": "nasal ribonuclease", "result": "virtually completely reversible"}, {"measurement": "Influenza B RNA detection by APA after RNase A pretreatment", "setting": "RNase A [1]", "result": "did not prevent significant restoration of RNase A activity"}, {"measurement": "RNA detectability eliminated by recovered RNase activity (assay calibration)", "setting": "nasal swab ribonucleases; 0.2% SDS without DTT, 2-minute incubation at 58° C.", "result": "> 95", "unit": "%"}, {"measurement": "Influenza B RNA detection after nasal swab eluate pretreatment and SDS sequestration", "setting": "nasal swab ribonucleases; nasal swab eluate 4% of swab, 0.2% SDS with or without 10 mM DTT, 2 minutes at 58° C., then 4% βCD", "result": "no detection"}, {"measurement": "Liberation of target DNA from elementary bodies (lysis)", "setting": "[2]", "result": "as effective in liberating target DNA as the heat lysis"}, {"measurement": "Influenza B virus APA performance in presence of RNAse A", "setting": "RNase A [3]", "result": "recovery of inhibitory levels of RNAse A"}]}]}
